Laboratory results from patent US20210087217A1, “NUCLEOTIDE HEMI-SULFATE SALT FOR THE TREATMENT OF HEPATITIS C VIRUS” (Atea Pharmaceuticals, Inc., priority 2017, published 2021).
“Also recorded” adds a separate entry of the source. Structures can show the parent of a compound that is named as a salt. Blank lines part the entries; values can stand above or below the molecule they belong to.

How the values were obtained:
[1] = molecular target: human mitochondrial RNA-dependent RNA polymerase (POLRMT) (Homo sapiens, UniProt O00411); test: Incorporation of nucleotide analog triphosphates by human mitochondrial RNA polymerase; type: biochemical
Experimental: The incorporation of these analogs by human mitochondrial RNA-dependent RNA polymerase (POLRMT) were determined according to Arnold et al. (Sensitivity of Mitochondrial Transcription and Resistance of RNA Polymerase II Dependent Nuclear Transcription to Antiviral Ribonucleotides. PLoS Pathog., 2012, 8, e1003030).

[2] = Storage of Compound 1 forms and amorphous salts at 25° C./60% RH for 14 days (HPLC, XRPD, observation)
Experimental: This initial characterization was followed by storage at 25° C./60% relative humidity (RH) for 14 days with analysis by […] and XRPD after 7 and 14 days. FIG. 4A is the XRPD after 14 days at 25° C./60% (RH).
The samples were then frozen with the solvent removed by lyophilization.
The samples were then subjected to storage at 25° C./60% relative humidity (RH) for 14 days with analysis by HPLC and XRPD after 7 (FIG. 4B) and 14 days (FIG. 5A).

[3] = Plasma profiles of Compound 2 metabolites in rats; conditions: male, Sprague-Dawley, rat, plasma, po, 500 mg/kg
Experimental: The results for a single 500 mg/kg dose in rats is shown in FIG. 17 and the results for a single 30, 100, or 300 mg/kg dose in monkeys is shown in FIG. 18.

[4] = Plasma profiles of Compound 2 metabolites in monkeys; type: in vivo, cynomolgus monkeys; conditions: cynomolgus monkey, plasma, po
[5] = Single ascending dose study of Compound 2 in GT1-HCV infected patients (Part B): safety, tolerability, pharmacokinetic; type: in vivo, human; conditions: human; for Cmax / AUC / half-life / Tmax: in vivo; for Cmax / AUC / half-life / concentration at 24 h: GT1-HCV infected patients, mean±SD; for concentration at 24 h: plasma, oral, read-out: C24h
Experimental: Subjects in Part B received a single dose of Compound 2 in the fasting state. Patients were confined to the clinic from Day −1 to Day 6.
Part B was initiated after the safety (through Day 5) and plasma pharmacokinetic (through 24 h) data review from Cohort 3a in Part A. Available safety data (through Day 5) and pharmacokinetic data (through 24 h) was reviewed for the first cohort in Part B (Cohort 1b) before enrolling subsequent Part B cohorts. Subsequent Part B cohorts were only dosed following review of available safety and pharmacokinetic data from the respective doses in Part A as well as available safety (through Day 5) from the prior Part B cohorts.
Patients infected with HCV were treatment-naïve, non-cirrhotic GT1-infected subjects with a viral load of ≥5 log10 IU/mL.
(§1) Pharmacokinetic of Compound 1 and nucleoside metabolite 1-7 were measured following the single dose of Compound 2. […] Values are reported as mean±SD, except or Tmax where median (range) is reported.
Plasma exposure of Compound 1 was dose-related while exposure of metabolite 1-7 was dose-proportional.

[6] = Single ascending dose study of Compound 2 in healthy volunteers (Part A): safety, tolerability, pharmacokinetic; type: in vivo, human; conditions: both sexes, human, plasma, oral; for concentration at 24 h: read-out: C24h
Experimental: Compound 2 was tested in a single ascending dose (SAD) study to measure its safety, tolerability, and pharmacokinetic in healthy subjects (Part A). Part A was a randomized, double-blind, placebo-controlled SAD study. Healthy subjects in Part A received a single dose of Compound 2 or placebo in the fasting state. Subjects were confined to the clinic from Day −1 to Day 6.
Dosing in each cohort was staggered such that 2 subjects (1 active:1 placebo) were evaluated for 48 hours after dosing before the remainder of the cohort was dosed. Each cohort received Compound 2 in ascending order. Dosing of sequential cohorts occurred based on review of available safety data (through Day 5) and plasma pharmacokinetic data (through 24 h) of the prior cohort.
As pharmacokinetic and safety data emerged from prior cohorts, doses evaluated in Cohorts 3a-4a were adjusted by increments no more than 100 mg.
Healthy volunteers in the Part A portion of the study were male and female subjects between the ages of 18 and 65. Active and placebo recipients were pooled within each Part A cohort to preserve the study blind.
as §1

[7] = incorporation by human mitochondrial RNA polymerase
[8] = 100 mg, Compound 2 100 mg, based on 24-hr profile
[9] = 300 mg, Compound 2 300 mg (first 300 mg line)
[10] = 300 mg, Compound 2 300 mg (first 300 mg line), based on 24-hr profile
[11] = 300 mg, Compound 2 300 mg (second 300 mg line)

human mitochondrial RNA-dependent RNA polymerase (POLRMT), sequence (O00411 42-1230): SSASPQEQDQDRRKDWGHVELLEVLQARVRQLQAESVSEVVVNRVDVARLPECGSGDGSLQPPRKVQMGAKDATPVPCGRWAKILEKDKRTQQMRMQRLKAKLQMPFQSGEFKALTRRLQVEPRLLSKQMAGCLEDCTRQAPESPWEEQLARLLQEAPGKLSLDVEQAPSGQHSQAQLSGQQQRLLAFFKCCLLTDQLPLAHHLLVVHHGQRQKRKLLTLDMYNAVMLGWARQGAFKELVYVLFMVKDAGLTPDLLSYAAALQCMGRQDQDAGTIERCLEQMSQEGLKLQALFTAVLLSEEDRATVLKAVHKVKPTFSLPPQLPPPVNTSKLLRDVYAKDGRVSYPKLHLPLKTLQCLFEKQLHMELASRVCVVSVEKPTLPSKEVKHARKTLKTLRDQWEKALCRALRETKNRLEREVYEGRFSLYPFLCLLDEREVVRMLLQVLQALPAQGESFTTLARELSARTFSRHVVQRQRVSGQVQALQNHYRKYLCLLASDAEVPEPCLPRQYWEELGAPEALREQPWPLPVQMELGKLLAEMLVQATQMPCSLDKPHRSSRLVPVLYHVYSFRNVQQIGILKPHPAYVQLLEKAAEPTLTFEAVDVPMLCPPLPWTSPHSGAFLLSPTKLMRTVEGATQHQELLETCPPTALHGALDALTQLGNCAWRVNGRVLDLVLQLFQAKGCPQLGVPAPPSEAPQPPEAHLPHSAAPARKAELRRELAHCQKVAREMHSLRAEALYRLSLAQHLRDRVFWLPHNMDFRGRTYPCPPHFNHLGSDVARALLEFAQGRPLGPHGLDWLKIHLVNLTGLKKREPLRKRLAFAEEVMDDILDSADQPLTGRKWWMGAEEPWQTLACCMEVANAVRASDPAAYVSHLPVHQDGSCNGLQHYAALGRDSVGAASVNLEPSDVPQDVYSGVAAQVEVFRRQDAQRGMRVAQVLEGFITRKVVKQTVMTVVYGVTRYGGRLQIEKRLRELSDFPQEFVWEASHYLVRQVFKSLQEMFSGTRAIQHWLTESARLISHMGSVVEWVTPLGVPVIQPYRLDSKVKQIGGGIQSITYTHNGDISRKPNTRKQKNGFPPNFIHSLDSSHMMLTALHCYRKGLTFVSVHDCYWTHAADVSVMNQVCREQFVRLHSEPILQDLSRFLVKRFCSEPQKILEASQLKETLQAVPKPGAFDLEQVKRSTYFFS

Kpol [1, 7]: 0.051 s⁻¹
SMILES: C[C@@]1(O)[C@H](O)[C@@H](COP(=O)(O)OP(=O)(O)OP(=O)(O)O)O[C@H]1n1cnc2c(=O)[nH]c(N)nc21 [2'-C-methyl GTP]

Kpol [1, 7]: 0.00034 s⁻¹
SMILES: CC1(F)C(O)C(COP(=O)(O)OP(=O)(O)OP(=O)(O)O)OC1n1ccc(=O)[nH]c1=O (centres unmarked) [2’-deoxy-2’-F-2’-C-methyl UTP]

SMILES: CNc1nc(N)nc2c1ncn2[C@@H]1O[C@H](CO[P@@](=O)(N[C@@H](C)C(=O)OC(C)C)Oc2ccccc2)[C@@H](O)[C@@]1(C)F [Compound 3, mono-sulfate salt of isopropyl((S)-(((2R,3R,4R,5R)-5-(2-amino-6-(methylamino)-9H-purin-9-yl)-4-fluoro-3-hydroxy-4-methyltetrahydrofuran-2-yl)methoxy)(phenoxy)phosphoryl)-L-alaninate]
Physical/chemical stability and appearance on storage ([2]; 25° C./60% RH, 14 days): unstable; also recorded: not physically stable

SMILES: CNc1nc(N)nc2c1ncn2[C@@H]1O[C@H](CO[P@@](=O)(N[C@@H](C)C(=O)OC(C)C)Oc2ccccc2)[C@@H](O)[C@@]1(C)F [Compound 5]
Hygroscopicity ([2]; listed as HCl salt): more hydroscopic than the hemisulfate salt

Incorporation of active triphosphate by human mitochondrial RNA polymerase [1]: poorlyincorporated
Relative Efficiency ([1]; (Kpol/Kd,app)analog nucleotide/(Kpol/Kd,app)natural nucleotide): 2.2 × 10^−6
Kpol [1, 7]: 0.0017 s⁻¹
Kpol/Kd,app [1, 7]: 8.3 M⁻¹ s⁻¹
Kd ([1]; incorporation by human mitochondrial RNA polymerase, read-out: Kd,app): 204 µM
SMILES: C[C@@]1(F)[C@H](O)[C@@H](COP(=O)(O)OP(=O)(O)OP(=O)(O)O)O[C@H]1n1cnc2c(=O)[nH]c(N)nc21 [Metabolite 1-6]

SMILES: C[C@@]1(F)[C@H](O)[C@@H](CO)O[C@H]1n1cnc2c(=O)[nH]c(N)nc21 [Metabolite 1-7, 2-amino-9-((2R,3R,4R,5R)-3-fluoro-4-hydroxy-5-(hydroxymethyl)-3-methyltetrahydrofuran-2-yl)-1,9-dihydro-6H-purin-6-one]
AUC(0-t) [3]: 9640 ng·h/mL
Cmax [3]: 541 ng/mL
Tmax [3]: 6 to 8 h
half-life [3]: 15.3 h
AUC(0-t) ([4]; 30 mg/kg): 1620 ng·h/mL
Cmax ([4]; 30 mg/kg): 42.5 ng/mL
Tmax ([4]; 30 mg/kg): 12 to 24 h
half-life ([4]; 30 mg/kg): 11.5 h
AUC(0-t) ([4]; 100 mg/kg): 3030 ng·h/mL
Cmax ([4]; 100 mg/kg): 131 ng/mL
half-life ([4]; 100 mg/kg): 15 h
AUC(0-t) ([4]; 300 mg/kg): 3660 ng·h/mL
Cmax ([4]; 300 mg/kg): 93.6 ng/mL
Tmax ([4]; 300 mg/kg): 4 to 24 h
half-life ([4]; 300 mg/kg): 18.8 h
Cmax ([5]; 100 mg, Compound 2 100 mg): 50.2 ± 15.4 ng/mL
AUC [5, 8]: 538 ± 103 ng·h/mL
half-life [5, 8]: 8.4 ± 4.3 h
Tmax ([5]; 100 mg, Tmax): 6 h
Tmax ([5]; 300 mg): 4.0 (3.0-6.0) h
Cmax [5, 9]: 96.9 ± 38.9 ng/mL
AUC [5, 10]: 1130 ± 273 ng·h/mL
half-life [5, 10]: 8.1 ± 2.4 h
AUC [5, 11]: 1420 ± 221 ng·h/mL
Cmax [5, 11]: 123 ± 16.6 ng/mL
Tmax ([5]; 300 mg, Tmax): 6 h
AUC ([5]; 400 mg, Compound 2 400 mg): 2130 ± 120 ng·h/mL
Cmax ([5]; 400 mg, Compound 2 400 mg): 160 ± 36.7 ng/mL
half-life ([5]; 400 mg, Compound 2 400 mg): 11.6 ± 1.21 h
AUC ([5]; 600 mg, Compound 2 600 mg): 2180 ± 116 ng·h/mL
Cmax ([5]; 600 mg, Compound 2 600 mg): 198 ± 19.3 ng/mL
concentration at 24 h ([5]; 100 mg, Compound 2 100 mg): 3.6 ± 0.4 ng/mL
concentration at 24 h [5, 9]: 10.9 ± 3.51 ng/mL
concentration at 24 h [5, 11]: 18 ± 8.83 ng/mL
concentration at 24 h ([5]; 400 mg, Compound 2 400 mg): 22.5 ± 3.29 ng/mL
concentration at 24 h ([5]; 600 mg, Compound 2 600 mg): 25.8 ± 4.08 ng/mL
AUC ([6]; 50 mg): 285 ± 69.4 ng·h/mL
Cmax ([6]; 50 mg): 27.9 ± 5.62 ng/mL
Tmax ([6]; 50 mg): 3.5 h
half-life ([6]; 50 mg): 7.07 ± 4.59 h
concentration at 24 h ([6]; 50 mg): 2.28 ± 0.95 ng/mL
AUC ([6]; 100 mg): 663 ± 242 ng·h/mL
Cmax ([6]; 100 mg): 56.6 ± 14 ng/mL
half-life ([6]; 100 mg): 17.7 ± 14.7 h
concentration at 24 h ([6]; 100 mg): 4.45 ± 1.87 ng/mL
AUC ([6]; 200 mg): 1520 ± 497 ng·h/mL
Cmax ([6]; 200 mg): 111 ± 38.8 ng/mL
half-life ([6]; 200 mg): 15.9 ± 7.95 h
concentration at 24 h ([6]; 200 mg): 13.7 ± 5.09 ng/mL
AUC ([6]; 400 mg): 2340 ± 598 ng·h/mL
Cmax ([6]; 400 mg): 153 ± 49.4 ng/mL
half-life ([6]; 400 mg): 15.6 ± 6.37 h
concentration at 24 h ([6]; 400 mg): 23.5 ± 6.31 ng/mL
